Data published in patent publication US7968588B2, “Injectable formulation of antibiotic and solution for intravenous administration thereof” (eRigen Pharmaceuticals, Inc., priority 2006, dated 2011).
Starred links: 1 amine or outer side, 2 acyl side, 3 side chain; linkers in the order of their positions; H or OH if unused. Positions of bridges follow the written chain, without caps; N, C: chain ends. Non-standard residues stand in square brackets, D forms with d. Residues, ends and D or L forms follow the SMILES beside them. ξ: configuration not given here. ξAsn(3ξ-OH) = NC(=O)C(O)C(N)C(=O)O; X1 = CC(C)CCCC(CC(=O)[*:1])O[*:2]; NMeF = CN[CH](Cc1ccccc1)C(=O)O; NMeV = CN[CH](C(=O)O)C(C)C; Orn = NCCC[CH](N)C(=O)O

Test system: MRSA (strain ATCC 33591)
Assay: In vivo efficacy study in a MRSA infection model in mice
Parameters: species or system Staphylococcus aureus
Conditions: for survival (%) at dosage 1.0 mg/kg: single i.v. dose 1.0 mg/kg one hour after i.v. MRSA inoculation; for survival (%) at dosage 3.0 mg/kg: single i.v. dose 3.0 mg/kg one hour after i.v. MRSA inoculation; for 50% effective dose: single i.v. dose, calculated from the survival rate at each dosage
Description: Efficacy was compared between the present solution of WAP-8294A2 prepared in the manner shown in Example 4 and vancomycin for injection (5% dextrose solution) using an MRSA infection model in mice.
The 50% effective dose (mg/kg) was calculated from the survival rate at each dosage.

SMILES	survival (%) at dosage 0.01 mg/kg (single i.v. dose 0.01 mg/kg one hour after i.v. MRSA inoculation, observed for a week) [%]	survival (%) at dosage 0.03 mg/kg (single i.v. dose 0.03 mg/kg one hour after i.v. MRSA inoculation, observed for a week) [%]	survival (%) at dosage 0.1 mg/kg (single i.v. dose 0.1 mg/kg one hour after i.v. MRSA inoculation, observed for a week) [%]	survival (%) at dosage 0.3 mg/kg (single i.v. dose 0.3 mg/kg one hour after i.v. MRSA inoculation, observed for a week) [%]	survival (%) at dosage 1.0 mg/kg (observed for a week) [%]	survival (%) at dosage 3.0 mg/kg (observed for a week) [%]	50% effective dose [mg/kg]	survival (%) at dosage 10 mg/kg (single i.v. dose 10 mg/kg one hour after i.v. MRSA inoculation, observed for a week) [%]
CC(C)CCCC1CC(=O)NC(CO)C(=O)NC(C(O)C(N)=O)C(=O)NC(CO)C(=O)NCC(=O)N(C)C(Cc2ccccc2)C(=O)NC(CC(C)C)C(=O)NC(CCCN)C(=O)NC(CCC(=O)O)C(=O)NC(CC(N)=O)C(=O)NC(Cc2c[nH]c3ccccc23)C(=O)NC(CCCN)C(=O)N(C)C(C(C)C)C(=O)O1 (centres unmarked) [WAP-8294A2] (S[ξAsn(3ξ-OH)]SG[NMeF]L[Orn]ENW[Orn][NMeV]; linker N-C via X1; configuration not given here)	10	30	60	100	100	100	0.06	
CN[C@H](CC(C)C)C(=O)N[C@H]1C(=O)N[C@@H](CC(N)=O)C(=O)N[C@H]2C(=O)N[C@H]3C(=O)N[C@H](C(=O)N[C@H](C(=O)O)c4cc(O)cc(O)c4-c4cc3ccc4O)[C@H](O)c3ccc(c(Cl)c3)Oc3cc2cc(c3O[C@@H]2O[C@H](CO)[C@@H](O)[C@H](O)[C@H]2O[C@H]2C[C@](C)(N)[C@H](O)[C@H](C)O2)Oc2ccc(cc2Cl)[C@H]1O [vancomycin, reference compound]					0	30	3.12	100
